Data from patent US20080221193A1, “3-AMINO CHROMANE DERIVATIVES” (Wyeth, priority 2006, published 2008).

Tests used:
h5HT1a receptor = molecular target: T1, h5HT1a receptor (Homo sapiens, UniProt P08908); experiment: cAMP RIA in CHO cells stably transfected with the h5HT1a receptor; format: cell-based; details: for EC50: agonist, forskolin-stimulated cAMP, read-out: 5-HT1A Function cAMP EC50; for IC50: antagonist, reversal of agonist 8-OH-DPAT, read-out: 5-HT1A Function cAMP IC50
T1 construct: expressed in transfected cells; host or cells: CHO cells, stably transfected
T1 sequence (P08908 1-422): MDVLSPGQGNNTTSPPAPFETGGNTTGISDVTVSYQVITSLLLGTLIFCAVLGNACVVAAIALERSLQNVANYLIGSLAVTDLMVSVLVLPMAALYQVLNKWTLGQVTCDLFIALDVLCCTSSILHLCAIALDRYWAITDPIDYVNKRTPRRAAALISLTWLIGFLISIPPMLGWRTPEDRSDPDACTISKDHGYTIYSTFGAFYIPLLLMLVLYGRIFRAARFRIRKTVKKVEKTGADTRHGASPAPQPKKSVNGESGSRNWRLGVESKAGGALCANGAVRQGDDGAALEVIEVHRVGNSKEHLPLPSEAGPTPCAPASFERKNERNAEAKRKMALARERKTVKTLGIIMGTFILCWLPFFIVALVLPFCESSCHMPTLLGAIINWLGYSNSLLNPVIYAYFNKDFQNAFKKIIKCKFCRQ
From the text: (§1) The agonist or antagonist activity at 5-HT1A receptors was established by using two different assays. The ^35S-GTPγS binding assay similar to that used by Lazareno and Birdsall (Br. J. Pharmacol., 1993, 109: 1120) was used to determine the test compound's ability to affect the binding of ^35S-GTPγS to membranes containing cloned human 5-HT1A receptors. Agonists produce an increase in binding whereas antagonists produce no increase but rather reverse the effects of the standard agonist 8-OH-DPAT. The test compound's maximum stimulatory effect is represented as the Emax, while its potency is defined by the EC50. The test compound's maximum inhibitory effect is represented as the Imax, while its potency is defined by the IC50. The second assay measured cAMP accumulation upon binding of the ligand to the 5-HT1A receptor. Antagonists block the effect of the standard agonist 8-OH-DPAT resulting in an increase in cAMP accumulation while agonists have the reverse effect. The test compound's maximum stimulatory or inhibitory effect is represented as the Emax while its potency is defined by either IC50 for an antagonist or EC50 for an agonist. [^3H]-8-OH-DPAT was used to determine maximum agonist or antagonist response in both functional assays.
Stabily transfected CHO cells were grown in DMEM containing 10% heat inactivated FBS and non-essential amino acids. The cells were plated at a density of 10(6) cells per well in a 24 well plate and incubated for 2 days in a CO2 incubator. On the second day, the media was replaced with 0.5 ml treatment buffer (DMEM+25 mM HEPES, 5 mM theophylline, 10 uM pargyline) and incubated 10 minutes at 37° C.
Wells were treated with forskolin (1 μM final conc) followed immediately by test compound (0.1 and 1 uM for initial screen) and incubated for an additional 10 min at 37° C. The reaction was terminated by removal of the media and addition of 0.5 ml ice cold assay buffer (supplied in RIA kit). Plates were stored at −20° C. prior to assessment of cAMP formation by RIA.
Compounds shown to have no agonist activities were further analyzed for ability to reverse agonist activity. In separate experiments, 6 concentrations of antagonist were preincubated for 20 minutes prior to the addition of agonist and forskolin. Cells were harvested as described. The cAMP kit was supplied by Amersham and the RIA was performed as per kit instructions.

human 5-HT1A receptors [1] = molecular target: T2, human 5-HT1A receptors (Homo sapiens, UniProt P08908); experiment: 35S-GTPγS binding assay, membranes containing cloned human 5-HT1A receptors; format: biochemical; details: for IC50: read-out: 5-HT1A Function GTPγS IC50
T2 construct: expressed in transfected cells; host or cells: CHO cells, stably transfected
T2 sequence (P08908 1-422): T1 sequence (P08908 1-422)
From the text: as §1

h5-HT Transporter = h5-HT Transporter (Homo sapiens, UniProt P31645); experiment: h5-HT Transporter Function (Table 1); format: biochemical
human 5-HT1A receptors [2] = molecular target: T2, human 5-HT1A receptors; experiment: 8-OH-DPAT binding in CHO cells stably transfected with human 5HT1a receptor; details: displacement of [3H]8-OH-DPAT, CHO cells with human 5-HT1A; read-out: 5-HT1A Receptor Affinity Ki
Protocol: High affinity for the serotonin 5-HT1A receptor was established by testing the claimed compound's ability to displace [^3H] 8-OH-DPAT (dipropylaminotetralin) from the 5-HT1A serotonin receptor following a modification of the procedure of Hall et al., (J. Neurochem., 1985, 44: 1685) which utilizes CHO cells stably transfected with human 5-HT1A receptors.
Stabily transfected CHO cells were grown in DMEM containing 10% heat inactivated FBS and non-essential amino acids. Cells were scraped off the plate, transferred to centrifuge tubes, and washed twice by centrifugation (2000 rpm for 10 min., 4° C.) in buffer (50 mM Tris pH 7.5). The resulting pellets were aliquoted and placed at −80° C. On day of assay, the cells were thawed on ice, and resuspended in buffer. The binding assay was performed in a 96 well microtiter plate in a total volume of […].
Non-specific binding was determined in the presence of […] 5HT, final ligand concentration is 1.5 nM. Following a 30 minute incubation at room temperature, the reaction was terminated by the addition of ice cold buffer and rapid filtration through a GF/B filter presoaked for 30 minutes in 0.5% PEI. Compounds were initially tested in a single point assay to determine percent inhibition at […]. Subsequently, Ki values were determined for compounds defined to be active.

Sequence of h5-HT Transporter (P31645 whole entry): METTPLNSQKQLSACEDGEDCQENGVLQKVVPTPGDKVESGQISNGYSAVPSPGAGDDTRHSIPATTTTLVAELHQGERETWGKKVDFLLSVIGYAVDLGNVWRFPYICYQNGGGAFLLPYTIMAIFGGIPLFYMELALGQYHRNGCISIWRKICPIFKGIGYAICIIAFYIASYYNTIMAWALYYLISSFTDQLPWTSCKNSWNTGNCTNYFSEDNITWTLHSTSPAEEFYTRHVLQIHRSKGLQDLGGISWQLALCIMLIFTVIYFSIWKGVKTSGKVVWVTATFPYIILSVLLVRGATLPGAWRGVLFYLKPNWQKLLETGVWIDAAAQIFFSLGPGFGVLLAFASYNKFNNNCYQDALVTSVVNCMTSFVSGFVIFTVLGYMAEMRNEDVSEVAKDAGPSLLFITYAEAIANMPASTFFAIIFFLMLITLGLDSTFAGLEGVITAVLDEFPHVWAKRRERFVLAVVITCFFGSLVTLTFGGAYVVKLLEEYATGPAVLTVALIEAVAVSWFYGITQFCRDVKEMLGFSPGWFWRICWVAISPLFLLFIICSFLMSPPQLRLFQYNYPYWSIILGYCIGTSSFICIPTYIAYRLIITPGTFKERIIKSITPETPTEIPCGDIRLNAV

| Molecule | EC50 (h5HT1a receptor) [nM] | EC50 (human 5-HT1A receptors [1]; agonist potency, read-out: 5-HT1A Function GTPγS EC50) [nM] | IC50 (h5-HT Transporter) [nM] | Ki (human 5-HT1A receptors [2]) [nM] | IC50 (h5HT1a receptor) [nM] | IC50 (human 5-HT1A receptors [1]) [nM] |
| --- | --- | --- | --- | --- | --- | --- |
| CCOc1ccc(C(N)=O)c2c1OC[C@H](N(CCCc1c[nH]c3ccc(F)cc13)C1CCC1)C2 [Example 3, (3R)-3-{cyclobutyl[3-(5-fluoro-1H-indol-3-yl)propyl]amino}-8-ethoxychromane-5-carboxamide] | – | – | 329 | 108 | 768 | 5030 |
| CCCOc1ccc(C(N)=O)c2c1OC[C@H](N(CCCc1c[nH]c3ccc(F)cc13)C1CCC1)C2 [Example 4, (3R)-3-{cyclobutyl[3-(5-fluoro-1H-indol-3-yl)propyl]amino}-8-propoxychromane-5-carboxamide] | 151 | – | 450 | 70.1 | – | 684 |
| NC(=O)c1ccc(O)c2c1C[C@@H](N(CCCc1c[nH]c3ccc(F)cc13)C1CCC1)CO2 [Example 6, (3R)-3-{cyclobutyl[3-(5-fluoro-1H-indol-3-yl)propyl]amino}-8-hydroxychromane-5-carboxamide] | 312 | – | 347 | 136 | – | 2550 |
| COc1ccc(C(N)=O)c2c1OC[C@H](N(CCCc1c[nH]c3ccc(F)cc13)CCC(F)(F)F)C2 [Example 7, (3R)-3-{3,3,3-trifluoropropyl[3-(5-fluoro-1H-indol-3-yl)propyl]amino}-8-methoxychromane-5-carboxamide] | – | – | 2680 | 636 | – | – |
| COc1ccc(C(N)=O)c2c1OC[C@H](N(CCCc1c[nH]c3ccc(F)cc13)CCCC(F)(F)F)C2 [Example 12, (3R)-3-{4,4,4-trifluorobutyl[3-(5-fluoro-1H-indol-3-yl)propyl]amino}-8-methoxychromane-5-carboxamide] | – | – | 2580 | – | – | – |
| COc1ccc(C(N)=O)c2c1OC[C@H](N(CCCc1c[nH]c3ccc(F)cc13)CC(C)C)C2 [Example 13, (3R)-3-{2-methylpropyl[3-(5-fluoro-1H-indol-3-yl)propyl]amino}-8-methoxychromane-5-carboxamide] | – | – | 339 | 214 | – | 2950 |
| CNC(=O)c1ccc(OC)c2c1C[C@@H](N(CCCc1c[nH]c3ccc(F)cc13)CCC(F)(F)F)CO2 [Example 17, (3R)-3-{3,3,3-trifluoropropyl[3-(5-fluoro-1H-indol-3-yl)propyl]amino}-8-methoxychromane-5-methylcarboxamide] | – | – | 5540 | 662 | – | – |
| COc1ccc(C(N)=O)c2c1OC[C@H](N(CCCC1CNc3ccc(F)cc31)C1CCC1)C2 (stereo partly drawn) [Example 19, (3R)-3-{cyclobutyl[3-(5-fluoro-1H-indolin-3-yl)propyl]amino}-8-methoxy-chromane-5-carboxamide] | – | – | 407 | 43.6 | 99.9 | – |
| CCSc1ccc(C(N)=O)c2c1OC[C@H](N(CCCc1c[nH]c3ccc(F)cc13)C1CCC1)C2 [Example 23, (3R)-3-{cyclobutyl[3-(5-fluoro-1H-indol-3-yl)propyl]amino}-8-(ethylthio)chromane-5-carboxamide] | – | – | 831 | 138 | 137 | – |
| (3R)-3-{2-isopropyl[3-(5-fluoro-1H-indol-3-yl)propyl]amino}-8-methoxychromane-5-carboxamide [Example 9] | – | – | – | 515 | – | – |

The remaining lines, values ahead:

| EC50 (h5HT1a receptor) [nM] | EC50 (human 5-HT1A receptors [1]; agonist potency, read-out: 5-HT1A Function GTPγS EC50) [nM] | IC50 (h5-HT Transporter) [nM] | Ki (human 5-HT1A receptors [2]) [nM] | IC50 (h5HT1a receptor) [nM] | IC50 (human 5-HT1A receptors [1]) [nM] | Molecule |
| --- | --- | --- | --- | --- | --- | --- |
| 230 | 489 | 234 | 113 | – | – | COc1ccc(C(N)=O)c2c1OC[C@H](NCCCc1c[nH]c3ccc(F)cc13)C2 [Example 1, (3R)-3-[3-(5-fluoro-1H-indol-3-yl)propyl]amino-8-methoxychromane-5-carboxamide] |
| – | – | 13.2 | 10.4 | 92.1 | 119 | COc1ccc(C(N)=O)c2c1OC[C@H](N(CCCc1c[nH]c3ccc(F)cc13)C1CCC1)C2 [Example 2, (3R)-3-{cyclobutyl[3-(5-fluoro-1H-indol-3-yl)propyl]amino}-8-methoxychromane-5-carboxamide] |
| 118 | – | 214 | 35.3 | – | 3150 | CC(C)Oc1ccc(C(N)=O)c2c1OC[C@H](N(CCCc1c[nH]c3ccc(F)cc13)C1CCC1)C2 [Example 5, (3R)-3-{cyclobutyl[3-(5-fluoro-1H-indol-3-yl)propyl]amino}-8-isopropoxychromane-5-carboxamide] |
| – | – | 45.3 | 25.5 | 439 | 442 | COc1ccc(C(N)=O)c2c1OC[C@H](N(CCCc1c[nH]c3ccc(F)cc13)CC1CC1)C2 [Example 8, (3R)-3-{cyclopropylmethyl[3-(5-fluoro-1H-indol-3-yl)propyl]amino}-8-methoxychromane-5-carboxamide] |
| 186 | – | 8 | 20.5 | – | 321 | CCCN(CCCc1c[nH]c2ccc(F)cc12)[C@H]1COc2c(OC)ccc(C(N)=O)c2C1 [Example 10, (3R)-3-{propyl[3-(5-fluoro-1H-indol-3-yl)propyl]amino}-8-methoxychromane-5-carboxamide] |
| – | – | 279 | 98.7 | 375 | 3030 | CCCCN(CCCc1c[nH]c2ccc(F)cc12)[C@H]1COc2c(OC)ccc(C(N)=O)c2C1 [Example 11, (3R)-3-{butyl[3-(5-fluoro-1H-indol-3-yl)propyl]amino}-8-methoxychromane-5-carboxamide] |
| – | – | 2.62 | 402 | – | 1370 | CCN(CCCc1c[nH]c2ccc(F)cc12)[C@H]1COc2c(OC)ccc(C(N)=O)c2C1 [Example 14, (3R)-3-{ethyl[3-(5-fluoro-1H-indol-3-yl)propyl]amino}-8-methoxychromane-5-carboxamide] |
| – | – | 160 | 1700 | – | – | COc1ccc(C(N)=O)c2c1OC[C@H](N(C)CCCc1c[nH]c3ccc(F)cc13)C2 [Example 15, (3R)-3-{methyl[3-(5-fluoro-1H-indol-3-yl)propyl]amino}-8-methoxychromane-5-carboxamide] |
| – | – | 110 | 61.3 | 94.2 | – | COc1ccc(C(N)=O)c2c1OC[C@H](N(CCCc1c[nH]c3c(F)cc(F)cc13)C1CCC1)C2 [Example 18, (3R)-3-{cyclobutyl[3-(5,7-difluoro-1H-indol-3-yl)propyl]amino}-8-methoxy-chromane-5-carboxamide] |
| – | – | 125 | 72.7 | – | – | CN(C)c1ccc(C(N)=O)c2c1OC[C@H](N(CCCc1c[nH]c3ccc(F)cc13)C1CCC1)C2 [Example 24, (3R)-3-{cyclobutyl[3-(5-fluoro-1H-indol-3-yl)propyl]amino}-8-(dimethylamino) chromane-5-carboxamide] |
